The target of experiment [1] is T1, MST1 (Homo sapiens, UniProt Q13043).
T1 sequence (Q13043 1-487): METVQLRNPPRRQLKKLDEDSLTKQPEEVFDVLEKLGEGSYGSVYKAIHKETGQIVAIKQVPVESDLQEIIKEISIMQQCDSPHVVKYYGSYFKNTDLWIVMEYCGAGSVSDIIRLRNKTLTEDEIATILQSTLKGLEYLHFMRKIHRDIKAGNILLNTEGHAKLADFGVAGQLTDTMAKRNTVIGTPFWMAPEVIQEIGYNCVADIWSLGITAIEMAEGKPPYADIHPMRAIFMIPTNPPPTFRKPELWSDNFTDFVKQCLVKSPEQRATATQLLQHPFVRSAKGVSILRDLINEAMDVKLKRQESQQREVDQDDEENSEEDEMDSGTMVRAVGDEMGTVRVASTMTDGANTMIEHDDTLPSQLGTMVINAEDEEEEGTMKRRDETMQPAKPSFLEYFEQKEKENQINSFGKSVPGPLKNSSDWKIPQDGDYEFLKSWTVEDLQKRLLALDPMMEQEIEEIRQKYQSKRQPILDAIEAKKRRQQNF
Kind of experiment: ADP-Glo kinase assay. The class given is biochemical. More on the design: gene STK4; isolated MST1 protein (ITC) and "active MST1" (ADP-Glo). To be noted: activator; ATP and MOB1a substrate; 25 °C, 30 min.

The target of a further experiment is T2, MST1-GFP (Homo sapiens, UniProt Q13043).
T2 construct: gene STK4; GFP-tagged MST1 expressed from plasmid in A549 cells, RIPA lysate
T2 sequence (Q13043 1-487): T1 sequence (Q13043 1-487)
Kind of experiment: microscale thermophoresis. The settings on record: A549 cell lysate; GFP fusion as fluorophore; constant, if any, only in figure. From the text:
microscale thermophoresis on MST1-GFP | Microscale thermophoresis confirmed dose‐dependent binding affinity (Figure 1H)

For experiment [2], the target named is T1, MST1. The experiment can be described thus: CETSA (immunoblot), H520 and A549 cells. The class given is cell-based. Also on record: gene STK4; endogenous protein in A549 and H520 cells, detected by immunoblot (antibody CST #3682). The settings on record: 42-56 °C, 3 min; supported by DARTS (50 and 100 µM, Pronase).
Experiment [3] addresses T1, MST1. Kind of experiment: isothermal titration calorimetry. The class given is binding. To be noted: 25 °C; 50 mM HEPES pH 7.5, 150 mM NaCl, 2 mM DTT. Also on record: gene STK4; isolated MST1 protein (ITC) and "active MST1" (ADP-Glo).

On to `C=C(C)C(=O)OC1CC(C)=CC2(OC)C=C(C)C(O2)C2OC(=O)C(=C)C12` (stereo not shown) [EM2], for which the kinase activity result at MST1 [1] is “functions through its kinase activity, which significantly increased with EM2 concentration (Figure 1J)”. In addition, the Kd at MST1-GFP was 1790 ± 1690 nM; at MST1 [3] it was 1970 ± 1020 nM. Besides, the “CETSA (immunoblot), H520 and A549 cells” value on MST1 [2] is “CETSA demonstrated that EM2 enhanced MST1 thermal stability”.

Source of the values: paper PMC12767113, “EM2, a Natural Product MST1/2 Kinase Activator, Suppresses Non‐Small Cell Lung Cancer via Hippo Pathway Activation” (Advanced Science, 2025).
